As usually defined, the IC50 is the concentration at which inhibition is half-maximal.

Test [1] deals with T1, USP7 (Homo sapiens, UniProt Q93009). The test is classed as biochemical.
In test [2] the target is T1, USP7. The test is classed as biochemical. This is another data set of the same source.
For test [3], the target named is T1, USP7. The experiment in a line: purified enzyme biochemical assay. Conditions: cited from earlier work.

The structures appear in SMILES notation.

T1 sequence (Q93009 whole entry): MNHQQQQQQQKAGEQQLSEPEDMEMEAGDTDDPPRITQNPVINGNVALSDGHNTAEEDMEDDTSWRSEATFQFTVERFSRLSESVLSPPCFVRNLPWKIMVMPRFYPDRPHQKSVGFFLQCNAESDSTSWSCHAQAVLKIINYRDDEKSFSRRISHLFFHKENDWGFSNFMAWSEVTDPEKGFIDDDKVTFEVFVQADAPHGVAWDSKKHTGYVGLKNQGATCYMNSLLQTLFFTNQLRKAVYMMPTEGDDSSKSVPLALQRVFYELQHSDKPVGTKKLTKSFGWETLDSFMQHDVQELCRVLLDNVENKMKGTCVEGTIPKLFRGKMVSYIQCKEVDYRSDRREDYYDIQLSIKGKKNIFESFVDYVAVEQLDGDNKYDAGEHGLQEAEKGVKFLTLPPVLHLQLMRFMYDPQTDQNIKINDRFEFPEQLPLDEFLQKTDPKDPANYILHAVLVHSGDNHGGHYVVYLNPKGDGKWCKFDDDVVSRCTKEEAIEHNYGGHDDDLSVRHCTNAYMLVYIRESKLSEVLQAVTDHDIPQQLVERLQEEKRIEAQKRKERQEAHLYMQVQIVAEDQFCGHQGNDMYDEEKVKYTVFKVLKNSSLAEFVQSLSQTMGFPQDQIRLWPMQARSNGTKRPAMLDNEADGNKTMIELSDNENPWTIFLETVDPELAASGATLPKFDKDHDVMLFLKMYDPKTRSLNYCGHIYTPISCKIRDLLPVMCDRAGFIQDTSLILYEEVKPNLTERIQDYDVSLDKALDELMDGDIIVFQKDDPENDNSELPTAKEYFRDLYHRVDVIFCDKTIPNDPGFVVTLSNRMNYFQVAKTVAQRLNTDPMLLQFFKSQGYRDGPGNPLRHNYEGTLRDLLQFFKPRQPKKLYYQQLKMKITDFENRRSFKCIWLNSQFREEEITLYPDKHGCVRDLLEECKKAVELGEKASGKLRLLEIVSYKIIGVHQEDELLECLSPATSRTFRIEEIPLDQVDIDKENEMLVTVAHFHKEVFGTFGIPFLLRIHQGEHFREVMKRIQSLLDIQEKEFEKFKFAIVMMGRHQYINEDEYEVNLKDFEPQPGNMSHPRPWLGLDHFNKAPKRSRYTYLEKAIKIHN

`CN1CCN(CCC(=O)Nc2ccc3c(=O)n(CC4(O)CCN(C(=O)[C@@H](CCCNC(=O)c5ccc6c(Cl)c7c(nc6c5)CCCC7)Cc5ccccc5)CC4)cnc3c2)CC1` [XL177A]: the “% inhibition at 1 μM” value in test [1] is given as 100. With `C[C@H](CC(=O)N1CCC(O)(Cn2cnc3cc(NC(=O)CCN4CCN(C)CC4)ccc3c2=O)CC1)c1ccccc1` [XL188], the “% inhibition at 10 μM” value in test [2] amounted to 100.

Consider `C[C@@H](CC(=O)N1CCC(O)(Cn2cnc3cc(NC(=O)CCN4CCN(C)CC4)ccc3c2=O)CC1)c1ccccc1` [XL203C], for which the concentration for half-maximal inhibition (IC50) in test [3] was 7 µM.

The values above are taken from paper PMC7855594 (Cell chemical biology, 2020).
